Experimental data: US9504690B2, “Tetracyclic xanthene derivatives and methods of use thereof for the treatment of viral diseases” (Merck Sharp & Dohme Corp., priority 2011, dated 2016)

Columns and labels:
[1] = test system: HCV replicon 1a WT; assay: Cell-based HCV replicon assay, 1a WT; conditions: Hepatitis C virus, 72 h; replicon cells, harvested day 3, replicon RNA by real time PCR (Taqman)
Method: (§1) To measure cell-based anti-HCV activity of selected compounds of the present invention, replicon cells were seeded at 5000 cells/well in 96-well collagen I-coated Nunc plates in the presence of the test compound. Various concentrations of test compound, typically in 10 serial 2-fold dilutions, were added to the assay mixture, with the starting concentration ranging from 250 μM to 1 μM. The final concentration of DMSO was 0.5%, fetal bovine serum was 5%, in the assay media. Cells were harvested on day 3 by the addition of 1× cell lysis buffer (Ambion cat #8721). The replicon RNA level was measured using real time PCR (Taqman assay). The amplicon was located in 5B. The PCR primers were: 5B.2F, ATGGACAGGCGCCCTGA (SEQ. ID. NO. 1); 5B.2R, […] (SEQ. ID. NO. 2); the probe sequence was FAM-labeled CACGCCATGCGCTGCGG (SEQ. ID. NO. 3). GAPDH RNA was used as endogenous control and was amplified in the same reaction as NS5B (multiplex PCR) using primers and VIC-labeled probe recommended by the manufacturer (PE Applied Biosystem). The real-time RT-PCR reactions were run on ABI PRISM 7900HT Sequence Detection System using the following program: 48° C. for 30 minutes, 95° C. for 10 minutes, 40 cycles of 95° C. for 15 sec, 60° C. for 1 minutes. The ΔCT values (CT5B-CTGAPDH) were plotted against the concentration of test compound and fitted to the sigmoid dose-response model using XLfit4 (MDL). […] Alternatively, to quantitate the absolute amount of replicon RNA, a standard curve was established by including serially diluted T7 transcripts of replicon RNA in the Taqman assay. All Taqman reagents were from PE Applied Biosystems. Such an assay procedure was described in detail in e.g. Malcolm et al., Antimicrobial Agents and Chemotherapy 50: 1013-1020 (2006).
(§2) HCV replicon assay data was calculated for selected compounds of the present invention using this method and is provided in the table below.

[2] = test system: HCV replicon 1b WT; assay: Cell-based HCV replicon assay, 1b WT; conditions: Hepatitis C virus, 72 h; replicon cells, harvested day 3, replicon RNA by real time PCR (Taqman)
Method: as §1, §2

[3] = test system: HCV replicon 2a WT; assay: Cell-based HCV replicon assay, 2a WT; conditions: Hepatitis C virus, 72 h; replicon cells, harvested day 3, replicon RNA by real time PCR (Taqman)
Method: as §1, §2

[4] = test system: HCV replicon 2b WT; assay: Cell-based HCV replicon assay, 2b WT; conditions: Hepatitis C virus, 72 h; replicon cells, harvested day 3, replicon RNA by real time PCR (Taqman)
Method: as §1, §2

[5] = test system: HCV replicon 3a WT; assay: Cell-based HCV replicon assay, 3a WT; conditions: Hepatitis C virus, 72 h; replicon cells, harvested day 3, replicon RNA by real time PCR (Taqman)
Method: as §1, §2

[6] = test system: HCV replicon 4a WT; assay: Cell-based HCV replicon assay, 4a WT; conditions: Hepatitis C virus, 72 h; replicon cells, harvested day 3, replicon RNA by real time PCR (Taqman)
Method: as §1, §2

[7] = test system: HCV replicon 1a Y93H; assay: Cell-based HCV replicon assay, 1a Y93H; conditions: Hepatitis C virus, 72 h, read-out: Replicon EC50 1a Y93H
Method: as §1, §2

Compound | EC50 [1] [nM] | EC50 [2] [pM] | EC50 [3] [nM] | EC50 [4] [nM] | EC50 [5] [nM] | EC50 [6] [nM] | EC50 [7] [nM]
COC(=O)N[C@H](C(=O)N1CC(F)(F)C[C@H]1c1ncc(-c2ccc3c(c2)Oc2ccc(-c4cnc([C@@H]5CC(F)(F)CN5C(=O)[C@@H](NC(=O)OC)C(C)C)[nH]4)c4c2N3CCC4)[nH]1)C(C)C [Compound 19] | 0.1 | 3 | 0.53 | 122 | 10 | 0.17 | –
COC(=O)N[C@H](C(=O)N1CCC[C@H]1c1ncc(-c2ccc3c(c2)Oc2ccc(-c4cnc([C@@H]5CCCN5C(=O)[C@@H](NC(=O)OC)C5CC5)[nH]4)c4ccn-3c24)[nH]1)C1CC1 [Compound 4, Dimethyl (pyrrolo[3,2,1-kl]phenoxazine-3,8-diylbis{1H-imidazole-5,2-diyl(2S)-pyrrolidine-2,1-diyl[(1S)-1-cyclopropyl-2-oxoethane-2,1-diyl]})biscarbamate] | 0.007 | 6 | 0.012 | – | 1.9 | 3.12 | 64.4
COC(=O)N[C@H](C(=O)N1CCC[C@H]1c1ncc(-c2cc3c4c(c2)Oc2ccc(-c5cnc([C@@H]6CCCN6C(=O)[C@@H](NC(=O)OC)C(C)C)[nH]5)cc2C4CO3)[nH]1)C(C)C (stereo partly drawn) [Compound 15, Methyl [(2S)-1-{(2S)-2-[5-(4-{2-[(2S)-1-{(2S)-2-[(methoxycarbonyl)amino]-3-methylbutanoyl}pyrrolidin-2-yl]-1H-imidazol-5-yl}-1,10b-dihydrofuro[2,3,4-kl]xanthen-9-yl)-1H-imidazol-2-yl]pyrrolidin-1-yl}-3-methyl-1-oxobutan-2-yl]carbamate] | 0.06 | 4 | – | – | 0.52 | 0.39 | 83
COC(=O)N[C@H](C(=O)N1CC(F)(F)C[C@H]1c1ncc(-c2ccc3c(c2)Oc2ccc(-c4cnc([C@@H]5CC(F)(F)CN5C(=O)[C@@H](NC(=O)OC)C(C)C)[nH]4)c4ccn-3c24)[nH]1)C(C)C [Compound 8, Methyl [(2S)-1-{(2S)-2-[5-(3-{2-[(2S)-4,4-difluoro-1-{(2S)-2-[(methoxycarbonyl)amino]-3-methylbutanoyl}pyrrolidin-2-yl]-1H-imidazol-5-yl}pyrrolo[3,2,1-kl]phenoxazin-8-yl)-1H-imidazol-2-yl]-4,4-difluoropyrrolidin-1-yl}-3-methyl-1-oxobutan-2-yl]carbamate] | 0.004 | 1 | – | – | 0.31 | 0.019 | 11.5
COC(=O)N[C@H](C(=O)N1CCC[C@H]1c1ncc(-c2ccc3c(c2)Oc2ccc(-c4cnc([C@@H]5CCCN5C(=O)[C@@H](NC(=O)OC)C(C)C)[nH]4)c4cnn-3c24)[nH]1)C(C)C [Compound 10, Methyl [(2S)-1-{(2S)-2-[5-(3-{2-[(2S)-1-{(2S)-2-[(methoxycarbonyl)amino]-3-methylbutanoyl}pyrrolidin-2-yl]-1H-imidazol-5-yl}pyrazolo[4,5,1-kl]phenoxazin-8-yl)-1 H-imidazol-2-yl]pyrrolidin-1-yl}-3-methyl-1-oxobutan-2-yl]carbamate] | 0.027 | 5 | 0.003 | 49 | 0.69 | 0.37 | 35.1
COC(=O)N[C@H](C(=O)N1CCC[C@H]1c1ncc(-c2ccc3c(c2)Oc2ccc(-c4cnc([C@@H]5CCCN5C(=O)[C@@H](NC(=O)OC)C(C)(C)C)[nH]4)c4ccn-3c24)[nH]1)C(C)(C)C [Compound 2, Methyl [(2S)-1-{(2S)-2-[5-(3-(2-[(2S)-1-(2S)-2-[(methoxycarbonyl)amino]-3,3-di-methylbutanoyl}pyrrolidin-2-yl]-1H-imidazol-5-ylpyrrolo[3,2,1-kl]phenoxazin-8-yl)-1H-imidazol-2-yl]pyrrolidin-1-yl)-3,3-dimethyl-1-oxobutan-2-yl]carbamate] | 0.0736 | 4.43 | 0.018 | – | 1.26 | 4.91 | 454
COC(=O)N[C@@H](C(=O)N1CCC[C@H]1c1ncc(-c2ccc3c(c2)Oc2ccc(-c4cnc([C@@H]5CCCN5C(=O)[C@H](NC(=O)OC)c5ccccc5)[nH]4)c4ccn-3c24)[nH]1)c1ccccc1 [Compound 3, Dimethyl (pyrrolo[3,2,1-kl]phenoxazine-3,8-diylbis{1H-imidazole-5,2-diyl(2S)pyrrolidine-2,1-diyl[(1R)-2-oxo-1-phenylethane-2,1-diyl]})biscarbamate] | 0.097 | 7 | 0.006 | – | 0.019 | 0.04 | 348
COC(=O)N[C@H](C(=O)N1CCC[C@H]1c1ncc(-c2cc3c4c(c2)Oc2ccc(-c5cnc([C@@H]6CCCN6C(=O)[C@@H](NC(=O)OC)C(C)C)[nH]5)cc2N4CCC3)[nH]1)C(C)C [Compound 12, Methyl [(2S)-1-{(2S)-2-[5-(5-{2-[(2S)-1-{(2S)-2-[(methoxycarbonyl)amino]-3-methylbutanoyl}pyrrolidin-2-yl]-1H-imidazol-5-yl}-2,3-dihydro-1H-pyrido[3,2,1-kl]phenoxazin-10-yl)-1H-imidazol-2-yl]pyrrolidin-1-yl}-3-methyl-1-oxobutan-2-yl]carbamate] | 0.056 | 3 | 0.002 | – | 0.375 | 0.13 | 115
COC(=O)N[C@H](C(=O)N1CCC[C@H]1c1ncc(-c2ccc3c(c2)Oc2cc(-c4cnc([C@@H]5CCCN5C(=O)[C@@H](NC(=O)OC)C(C)C)[nH]4)cc4c2N3CC4)[nH]1)C(C)C [Compound 7, Methyl [(2S)-1-{(2S)-2-[5-(4-{2-[(2S)-1-{(2S)-2-[(methoxycarbonyl)amino]-3-methylbutanoyl}pyrrolidin-2-yl]-1H-imidazol-5-yl}-1,2-dihydropyrrolo[3,2,1-kl]phenoxazin-8-yl)-1H-imidazol-2-yl]pyrrolidin-1-yl}-3-methyl-1-oxobutan-2-yl]carbamate] | 0.1 | 44 | 0.063 | – | 1.1 | 1.05 | 263
COC(=O)N[C@H](C(=O)N1CCC[C@H]1c1ncc(-c2ccc3c(c2)-n2ccc4c(-c5cnc([C@@H]6CCCN6C(=O)[C@@H](NC(=O)OC)C(C)C)[nH]5)ccc(c42)O3)[nH]1)C(C)C [Compound 5, Methyl [(2S)-1-{(2S)-2-[5-(3-{2-[(2S)-1-{(2S)-2-[(methoxycarbonyl)amino]-3-methyl-butanoyl}pyrrolidin-2-yl]-1H-imidazol-5-yl}pyrrolo[3,2,1-kl]phenoxazin-9-yl)-1H-imidazol-2-yl]pyrrolidin-1-yl}-3-methyl-1-oxobutan-2-yl]carbamate] | > 26 | 19000 | 20 | – | – | – | –
COC(=O)N[C@H](C(=O)N1C[C@H](F)C[C@H]1c1ncc(-c2ccc3c(c2)Oc2ccc(-c4cnc([C@@H]5C[C@@H](F)CN5C(=O)[C@@H](NC(=O)OC)C(C)C)[nH]4)c4ccn-3c24)[nH]1)C(C)C [Compound 9, Methyl [(2S)-1-{(2S,4R)-4-fluoro-2-[5-(3-{2-[(2S,4R)-4-fluoro-1-{(2S)-2-[(methoxycarbonyl)amino]-3-methylbutanoyl}pyrrolidin-2-yl]-1H-imidazol-5-yl}pyrrolo[3,2,1-kl]phenoxazin-8-yl)-1H-imidazol-2-yl]pyrrolidin-1-yl}-3-methyl-1-oxobutan-2-yl]carbamate] | 0.01 | 5 | – | – | 1.5 | 0.1 | 27.5
COC(=O)N[C@H](C(=O)N1CCC[C@H]1c1ncc(-c2ccc3c(c2)Oc2cc(-c4cnc([C@@H]5CCCN5C(=O)[C@@H](NC(=O)OC)C(C)C)[nH]4)cc4c2N3CCC4)[nH]1)C(C)C [Compound 11, Methyl [(2S)-1-{(2S)-2-[5-(5-{2-[(2S)-1-{(2S)-2-[(methoxycarbonyl)amino]-3-methylbutanoyl}pyrrolidin-2-yl]-1H-imidazol-5-yl}-2,3-dihydro-1H-pyrido[3,2,1-kl]phenoxazin-9-yl)-1H-imidazol-2-yl]pyrrolidin-1-yl}-3-methy-1-oxobutan-2-yl]carbamate] | 0.1 | 31 | 0.345 | – | 10 | 1.02 | 504
COC(=O)N[C@H](C(=O)N1CC(F)(F)C[C@H]1c1ncc(-c2ccc3c(c2)Oc2ccc(-c4cnc([C@@H]5CC(F)(F)CN5C(=O)[C@@H](NC(=O)OC)C(C)C)[nH]4)c4c2N3CC4)[nH]1)C(C)C [Compound 18] | 0.009 | 2 | – | 40 | 0.936 | 0.056 | 32
